Test results taken from patent publication US11926599B1, “1-(2-chlorobenzylideneamino)-5,5-diphenylimidazolidine-2,4-dione as an antimicrobial compound” (KING FAISAL UNIVERSITY, priority 2023, dated 2024).

How the values were obtained:
Format in all cases: cell-based
Pseudomonas aeruginosa = experiment: Agar plate disc-diffusion, antibacterial inhibition zone; settings: nutrient agar, 37° C., 48 hours, DMSO zone subtracted
Experimental: (§1) The agar plate disc-diffusion method was applied. […] The discs were then placed onto the surface of agar plates (nutrient agar for bacteria and Sabouraud's dextrose agar for fungi) seeded with the test organism. Each plate contained 15 mL of the agar medium, previously seeded with 0.2 mL of the broth culture of each organism pregrown for 18 hours. The plates were incubated at 37° C. for 48 hours, and 72 hours for fungi. The inhibition zones was measured in millimeter. Discs impregnated with DMSO were used as a control, and its inhibition zone was subtracted from the tested compound actual inhibition zone.
(§2) The results of the antimicrobial testing can be observed in Tables 1 and 2, below, with ciprofloxacin serving as a reference.

Bacillus cereus = experiment: as above; settings: nutrient agar, 37° C., 48 hours, DMSO zone subtracted
Experimental: as §1, §2

Staphylococcus aureus = experiment: as above; settings: nutrient agar, 37° C., 48 hours, DMSO zone subtracted
Experimental: as §1, §2

Escherichia coli = experiment: as above; settings: nutrient agar, 37° C., 48 hours, DMSO zone subtracted
Experimental: as §1, §2

[1] = tested on: Chrysosporium keratinophilum; experiment: Agar plate disc-diffusion, antifungal inhibition zone; settings: Sabouraud's dextrose agar, 72 hours, DMSO zone subtracted
Experimental: as §1, §2

Aspergillus flavus = experiment: as above; settings: Sabouraud's dextrose agar, 72 hours, DMSO zone subtracted
Experimental: as §1, §2

[2] = A = concentration of comp. = 10,000 μL
[3] = B = concentration of comp. = 30.000 μL
[4] = C = concentration of comp. = 50,000 μL

O=C1NC(=O)C(c2ccccc2)(c2ccccc2)N1/N=C/c1ccccc1Cl [Compound 4, 1-(2-chlorobenzylideneamino)-5,5-diphenylimidazolidine-2,4-dione]
inhibition zone, Pseudomonas aeruginosa, A (Pseudomonas aeruginosa; [2]): 20 millimeter | inhibition zone, Pseudomonas aeruginosa, B (Pseudomonas aeruginosa; [3]): 24 millimeter | inhibition zone, Pseudomonas aeruginosa, C (Pseudomonas aeruginosa; [4]): 34 millimeter | inhibition zone, Bacillus Cereus, A (Bacillus cereus; [2]): 26 millimeter | inhibition zone, Bacillus Cereus, B (Bacillus cereus; [3]): 29 millimeter | inhibition zone, Bacillus Cereus, C (Bacillus cereus; [4]): 41 millimeter | inhibition zone, Staphylococcus aureus, A (Staphylococcus aureus; [2]): 10 millimeter | inhibition zone, Staphylococcus aureus, B (Staphylococcus aureus; [3]): 17 millimeter | inhibition zone, Staphylococcus aureus, C (Staphylococcus aureus; [4]): 20 millimeter | inhibition zone, Escherichia coli, A (Escherichia coli; [2]): 27 millimeter | inhibition zone, Escherichia coli, B (Escherichia coli; [3]): 32 millimeter | inhibition zone, Escherichia coli, C (Escherichia coli; [4]): 51 millimeter | inhibition zone, Chrysosporium keratinophilum, A [1, 2]: 27 millimeter | inhibition zone, Chrysosporium keratinophilum, B [1, 3]: 29 millimeter | inhibition zone, Chrysosporium keratinophilum, C [1, 4]: 50 millimeter | inhibition zone, Aspergillus flavus, A (Aspergillus flavus; [2]): 25 millimeter | inhibition zone, Aspergillus flavus, B (Aspergillus flavus; [3]): 24 millimeter | inhibition zone, Aspergillus flavus, C (Aspergillus flavus; [4]): 36 millimeter
